Measurements as given in ChEMBL document CHEMBL3507680, “University of Dundee, Gates Library screen for HepG2 cell viability”.

Test: Human HepG2 cell viability assay in 384 well format
Format: toxicity, cell-based
Design: dose 125 nL, time 70.5 hour; cytotoxicity at 70.5 h: concentration not given beside the values
Details: HepG2 cells, read-out: Inhibition

| SMILES | cytotoxicity at 70.5 h [%] |
| --- | --- |
| CCOc1cccc(C(=O)Nc2ccncc2)c1 | -8.85 |
| O=C(NCc1ccoc1)NC1CCN(c2ncccn2)CC1 | 16.1 |
| CNC(=O)c1ccc(CNC(=O)c2ccc(Cl)cc2F)cc1 | -11.8 |
| CCC(=O)Nc1ccc2c(ccn2CCOC)c1 | -8.06 |
| COC1CCN(C(=O)c2cc(-c3ccc(Cl)cc3)on2)CC1 | -8.24 |
| CCOC1CCN(C(=O)c2cc(-c3ccc(Cl)cc3)on2)CC1 | -5.56 |
| COCCn1ccc(NC(=O)Nc2ccccn2)n1 | -10 |
| CC1CCC(NC(=O)Nc2ccc(CC(=O)N(C)C)cc2)CC1 (stereo not given) | -5.4 |
| CN(C(=O)Cc1ccc(NC(=O)NC2CC2)cc1)c1ccccc1 | 19.9 |
| COCCn1ccc(NC(=O)Nc2ccccc2)n1 | -2.83 |
| COCCn1ccc2cc(NC(=O)N(C)C(C)CSC)ccc21 (stereo not given) | 1.74 |
| O=C(c1cc2ccccc2c(=O)[nH]1)N1CCN(CCO)CC1 | -4.06 |
| O=C(Nc1ccc2ncccc2c1)C1CC(=O)N(Cc2ccccn2)C1 (stereo not given) | -4.54 |
| CC(NC(=O)c1ccnn1C)c1ccc(OCC2CC2)c(F)c1 (stereo not given) | 10.9 |
| COc1ccc(S(=O)(=O)NC(=O)c2c(C)noc2C(C)C)cc1C | -5.8 |
| CCN(Cc1cccc(F)c1)S(=O)(=O)N1CCOCC1 | 0.239 |
| CN(C(=O)Cc1ccc2c(c1)OCCO2)C1CCCCC1 | -1.71 |
| Cc1ccccc1OCCCC(=O)N(C)CCC#N | -5.57 |
| CCc1nccn1C1CCCN(C(=O)c2ccc(N(C)C)nn2)C1 (stereo not given) | -7.7 |
| CCc1nccn1C1CCCN(C(=O)c2ccn(-c3ccccc3)n2)C1 (stereo not given) | -1.19 |
| COc1ccc(N2CCCN(C(=O)Cc3csc(C)n3)CC2)cc1 | 0.0529 |
| CC(C(=O)N1CCCC1)N1CCCN(C(=O)Oc2ccccc2)CC1 (stereo not given) | -10.6 |
| CCn1c(C)cc(C(=O)N2CCCC(n3ccnc3C)C2)c1C (stereo not given) | -6.2 |
| NCC(c1ccc(Cl)cc1)N1CCc2sccc2C1 (stereo not given) | 7.32 |

| SMILES | cytotoxicity at 70.5 h [%] |
| --- | --- |
| Cc1ccc(C(=O)NCCCNS(C)(=O)=O)cc1C | -9.61 |
| CCOC(=O)c1c(NC(=O)CN2CCN(C(C)=O)CC2)sc(C)c1C | -13.3 |
| Cc1ccc(C(=O)NCCCN(C)S(C)(=O)=O)cc1-n1cccc1 | -8.22 |
| CC(C)C(C)NC(=O)Nc1ccc(CC(N)=O)cc1 (stereo not given) | -3.59 |
| Cc1ccc(C(=O)NS(C)(=O)=O)cc1-n1cccc1 | -6.32 |
| Cc1ccc(C(=O)N(C)Cc2nccn2CC(F)(F)F)cn1 | -13.5 |
| COCCNC(=O)NC(C)COc1ccc(F)cc1F (stereo not given) | -0.107 |
| Cc1cnn(CC2CCCCN2C(=O)Cc2c(C)noc2Cl)c1 (stereo not given) | 24.1 |
| Cc1cnn(CC2CCCCN2C(=O)Cc2c(C)noc2C)c1 (stereo not given) | -9.25 |
| O=C(CN1CCCC1CCCO)NCc1ccccn1 (stereo not given) | 1.57 |
| COc1cccc2c1OCC(NC(=O)NCCC(N)=O)C2 (stereo not given) | -7.75 |
| Cc1cc(C)n(CCCNC(=O)C(C)NC(=O)CC2CCCCC2)n1 (stereo not given) | -5.96 |
| CCCc1n[nH]c(C2CN(C(=O)c3cc(C4CC4)on3)CCO2)n1 (stereo not given) | -10.9 |
| CNS(=O)(=O)c1cc(C(=O)NC2COc3ccccc32)cc(C)c1C (stereo not given) | -13.5 |
| O=C(NCCc1nnc2n1CCC2)NCC1(c2ccc(F)cc2)CC1 | -7.03 |
| Cn1cc(CC2CCN(C(=O)NCCCc3ccc(O)cc3)C2)cn1 (stereo not given) | -9.85 |
| CCCc1noc(CCC(=O)N2CCCC2Cn2cc(C)cn2)n1 (stereo not given) | -10.8 |
| CCC(=O)NCC(c1ccc(SC)cc1)N1CCc2sccc2C1 (stereo not given) | -8.32 |
| COC(=O)c1ccoc1CN(C)Cc1ccccc1 | -0.994 |
| COCCOCC(=O)Nc1ccc(C)cc1Br | -3.99 |
| COc1ccccc1CC(C)(C)NC(=O)CNS(C)(=O)=O | -2.04 |
| O=C(CN1CCCS(=O)(=O)CC1)NCc1ccccc1F | -8.4 |
| O=C(CC1CCCO1)NCc1ccc(Br)cc1F (stereo not given) | -5.9 |
| CCOCCCC(=O)NC1CCN(C(C)c2ccccc2)CC1 (stereo not given) | -5.8 |

| SMILES | cytotoxicity at 70.5 h [%] |
| --- | --- |
| N#CCCN(Cc1cccnc1)C(=O)Cc1ccc(-n2cnnn2)cc1 | -10.6 |
| COc1ccc(-n2ccc(CNCc3cccc(OC)c3)n2)cc1 | 23.7 |
| Cc1cccc(OCCNC(=O)C(C)S(=O)(=O)C2CCCC2)c1 (stereo not given) | -9.37 |
| CCC(NC(=O)NCc1ccoc1C)c1c(C)nn(C)c1C (stereo not given) | -5.65 |
| Cc1nn(C)c(C)c1CC(C)NC(=O)NCc1ccn(C(C)C)n1 (stereo not given) | -5.76 |
| CC(C)CNC(=O)c1ccc(NC(=O)NC(C)(C)CO)cc1Cl | -2.58 |
| CCC1(c2ccc(NS(=O)(=O)c3cccs3)cc2)CCC(=O)NC1=O (stereo not given) | -1.8 |
| CC(C)CN1C(=O)C2(CCCC2)NC1c1cccnc1 (stereo not given) | 17.9 |
| CC(CO)CNC(=O)c1cc2cccc(F)c2o1 (stereo not given) | -9.63 |
| CCN(CC)S(=O)(=O)CCNC(=O)c1cc2cccc(F)c2o1 | -1.2 |
| CCc1nsc(N2CCCN(C(=O)c3ccsc3)CC2)n1 | 14 |
| CCc1nsc(N2CCCN(C(=O)c3ccc(CC)o3)CC2)n1 | -11 |
| CCc1nsc(N2CCCN(C(=O)c3ccc(OC)cc3)CC2)n1 | -10.9 |
| CCOC(=O)C(CO)NC(=O)CCc1cccc(OC2CCCC2)c1 (stereo not given) | -3.2 |
| Cc1nc(NC(=O)CCOCC(F)(F)F)ccc1Br | 2.27 |
| CC(NC(=O)c1cccnc1N(C)C)c1ccccc1Cl (stereo not given) | -9.9 |
| CCC(NCc1ccccc1C)c1ccccc1OCC(=O)NC (stereo not given) | 25.2 |
| O=C1OCCN1c1cccc(CNS(=O)(=O)Cc2ccc(F)cc2)c1 | -6.39 |
| CC(C)N(C)C(=O)c1ccc(CNc2ncc(C#N)cc2Cl)cc1 | 18.7 |
| Cc1cc(C)c(CCNC(=O)NCCCC(N)=O)c(C)c1 | -1.98 |
| CC(NC(=O)CCc1cccc(OC2CCCC2)c1)c1nncn1C (stereo not given) | 2.36 |
| COCC1CCN(CCCc2cn[nH]c2)CC1 | 19.8 |
| CC1CCN(S(=O)(=O)c2cccnc2)c2ccccc2S1 (stereo not given) | -3.73 |
| CCNC(=O)C1CCCN(Cn2nc(C(C)(C)C)ccc2=O)C1 (stereo not given) | 21.4 |

| SMILES | cytotoxicity at 70.5 h [%] |
| --- | --- |
| CC(C)(C)c1ccc(=O)n(CN2CCCC(C(F)(F)F)C2)n1 (stereo not given) | -7.29 |
| CCC(CNS(C)(=O)=O)Oc1ccccc1F (stereo not given) | -6.95 |
| Cn1cc(CNCCC(=O)NCc2ccccc2)c(-c2cccnc2)n1 | 2.26 |
| Cn1cc(CNCC2(O)CCCCC2)c(-c2cccnc2)n1 | -4.88 |
| CCC(NCc1ccccn1)c1ccccc1OCC(=O)NC (stereo not given) | -3.93 |
| CC(C)N(Cc1ccc(Cl)c(Cl)c1)C(=O)Cn1cncn1 | 1.18 |
| Cc1cccn2cc(CNCc3cccc4c3OCCCO4)nc12 | 8.14 |
| O=c1n(CCSCCOc2ccc(Br)cc2)nc2ccccn12 | -10.7 |
| Cc1cc(C(=O)CN2CCN(c3cnccn3)CC2)c(C)n1C(C)C | -10.7 |
| O=C(c1cccnc1O)N(CCO)Cc1cc(Br)ccc1F | -9.73 |
| NC(=O)C1CCN(C(=O)c2ccc(Sc3ccccn3)cc2)CC1 | -2.31 |
| CC(=O)NCC1CCN(C(=O)c2ccc(Sc3ccccn3)cc2)CC1 | -16.7 |
| CC(=O)N1CCN(C(=O)c2ccc(Sc3ccccn3)cc2)CC1 | -14 |
| Cc1cccc(OCCSCCn2nc3ccccn3c2=O)c1 | -11 |
| Cc1cc(OC(F)F)c(C(=O)N2CCN(C3CC3)CC2)s1 | -8.34 |
| COCCC(Cc1cccc(Br)c1)C(=O)N(C)C (stereo not given) | -0.534 |
| COCCC(Cc1cccc(Br)c1)C(=O)NCC(N)=O (stereo not given) | -9.6 |
| Cc1nn(C)c(C)c1Cc1nc(N(C)C)no1 | -0.362 |
| COC(=O)CN(C(=O)c1cc(C(C)C)no1)c1cccc(F)c1 | -8.3 |
| Cc1noc2ncc(S(=O)(=O)N3CCCC(C)(C)CC3)cc12 | -2.62 |
| COc1cc(NC(=O)N2CCCC2c2nncn2C)ccc1Br (stereo not given) | -4.18 |
| CC(C)CC(CO)NC(=O)NCc1csc(N(C)C)n1 (stereo not given) | 0.865 |
| CCOCc1ccc(NC(=O)N2CCCC2c2nncn2C)cc1 (stereo not given) | -6.88 |
| COc1ccc(Cn2nnnc2SCC2CCCN(C)C2)cc1 (stereo not given) | -8.49 |

| SMILES | cytotoxicity at 70.5 h [%] |
| --- | --- |
| Cc1cc(OC(F)F)c(C(=O)N2CCC(CN(C)C)CC2)s1 | -5.68 |
| COCCC(Cc1cccc(Br)c1)C(=O)O (stereo not given) | -5.16 |
| COCc1noc(Cc2c(C)nn(C)c2C)n1 | -2.81 |
| O=C(NCCC(=O)N1CCCC1)c1ccc(SCc2cccnc2)cc1 | -8.9 |
| N#CCc1ccc(OCC(=O)NS(=O)(=O)c2cccs2)cc1 | 1.77 |
| CC1CN(c2ccc(CNC(=O)NCc3ccoc3)cn2)CCO1 (stereo not given) | -5.8 |
| CC1CN(c2ccc(CNC(=O)NCCn3ccnc3)cn2)CCO1 (stereo not given) | -16.7 |
| O=C(NCCn1ccnc1)NCc1ccc(N2CCCCCC2)nc1 | -14.2 |
| CCc1sc(C(=O)Nc2cnn(CC(N)=O)c2)cc1C | 14.8 |
| CN(C)C(=O)c1ccc(CNc2c(Cl)cccc2C#N)cc1 | 3.41 |
| Cn1cc(C(C)(O)CNc2ccc(C(F)(F)F)cn2)cn1 (stereo not given) | -1.94 |
| O=C(CN1CCCC(c2ccn[nH]2)C1)Nc1nncs1 (stereo not given) | 1.3 |
| CN(C(=O)C(c1c(F)cccc1Cl)N(C)C)c1nccs1 (stereo not given) | 3.15 |
| Cc1cc(CNc2ccnn2C)ccc1-n1cncn1 | -1.29 |
| CCc1cc(NCc2ccc(-n3cncn3)c(C)c2)n(C)n1 | 2.61 |
| CC(=O)Nc1sccc1C(=O)C(C)(C)C | 16.1 |
| CNC(=O)COc1ccc(CNc2c(Cl)cccc2C#N)cc1 | -2.72 |
| COc1ccnc(NC(=O)CSCc2cccnc2)c1 | -1.54 |
| Cc1ncsc1C(=O)N(C)Cc1ccc(Br)o1 | 20.1 |
| O=C(NCCc1ccccc1)N1CCCCC1C1OCCO1 (stereo not given) | -1.28 |
| COCCCNC(=O)C(C)(C)N(C)C1CCCC1 | -0.184 |
| O=C(CN1CCCC(c2ccn[nH]2)C1)Nc1nc2c(s1)CCC2 (stereo not given) | -2.76 |
| Cc1ccc2cc(C(=O)N3CCCN(C)CC3)ccc2n1 | -2.19 |
| N#Cc1ccc(CNCC2(c3ccccc3)CCOCC2)cc1 | -12 |
